In patent US12264173B2 (GILEAD SCIENCES, INC., priority 2020, dated 2025):
pEC50: −log10 of the molar value. Like-named read-outs stand apart in the source and are kept apart here.

Legend:
Assay type in all cases: cell-based
RSV A2 = experiment: RSV NHBE EC50 (RSV A2 antiviral assay in NHBE cells); details: Table 3, NHBE cells, RSV A2, 4 days, read-out: RSV NHBE EC50
Outline: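 Antiviral activity against RSV A2 was determined in NHBE cells used within 6 passages, with cell viability quantified by CellTiter-Glo after a 4-day infection.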

DENV2 replicon = experiment: DENV-2 Huh-7 Rep EC50 (replicon luminescence); details: read-out: DENV-2 REP Huh7 EC50
Outline: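 Huh-7 cells carrying a DENV2 replicon, 5,000 cells/well, were incubated with dosed compounds for 48 h at 37° C. EnduRen live-cell substrate was added 1.5 h before luminescence reading. EC50 came from dose-response against DMSO-only wells.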

RSV strain A2 = experiment: microbe, parasite or virus in culture; details: Table 3, HEp-2 cells, RSV A2, 4 days, read-out: RSV HEp-2 EC50
Outline: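 Cytopathic-effect protection assay: HEp-2 cells (50,000/mL) infected with pre-titered RSV A2 onto 3-fold serial compound dilutions, incubated 4 days at 37° C. Cell viability read by CellTiter-Glo luminescence; percent inhibition derived against 0% and 100% virus-inhibition controls.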

HRV16 = HRV16 HeLa EC50 (cytopathic effect in H1-HeLa cells)
Outline: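 H1-HeLa cells seeded one day before, given 3-fold serial compound dilutions in triplicate just prior to infection with pre-titrated virus. Incubated 96 h at 33 °C/5% CO2; protection from cytopathic effect read as viability by CellTiter-Glo luminescence, normalised to infected untreated (0%) and uninfected (100%) controls.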

[1] = Table 3, Huh-7 DENV2 replicon cells, 48 hours
[2] = Table 3; H1-HeLa cells, 96 h; read-out: HRV16 HeLa EC50
[3] = human respiratory syncytial virus, NHBE, 96 h
[4] = Dengue virus, DENV2, Huh-7, 48 h
[5] = human respiratory syncytial virus, HEp-2, 96 h
[6] = 96 h, Table 3; H1-HeLa cells, 96 h; read-out: HRV16 HeLa EC50

Row | SMILES | pEC50 (RSV A2) | pEC50 (DENV2 replicon; [1]) | pEC50 (RSV strain A2) | pEC50 (HRV16; [2]) | pEC50 (RSV A2; [3]) | pEC50 (DENV2 replicon; [4]) | pEC50 (RSV strain A2; [5]) | pEC50 (HRV16; [6])
1 | CCCOC(=O)[C@H](C)NP(=O)(OC[C@@]1(C#N)O[C@@H](c2ccc3c(N)ncnn23)[C@H](OC(=O)CC)[C@@H]1OC(=O)CC)Oc1ccccc1 (single isomer, unassigned) [Example 189] | 7.29 | 5.05 | 7.44 | 6.94 |  |  |  | 
2 | CCCOC(=O)[C@H](C)NP(=O)(OC[C@@]1(C#N)O[C@@H](c2ccc3c(N)ncnn23)[C@H](OC(=O)C(C)C)[C@@H]1OC(=O)C(C)C)Oc1ccccc1 (single isomer, unassigned) [Example 191] | 8.10 | 5.57 | 7.64 | 7.19 |  |  |  | 
3 | CCCOC(=O)[C@H](C)NP(=O)(OC[C@@]1(C#N)O[C@@H](c2ccc3c(N)ncnn23)[C@H](OC(=O)C(C)C)[C@@H]1OC(=O)C(C)C)Oc1ccccc1 (single isomer, unassigned) [Example 192] | 7.35 | 5.06 | 7.54 | 7.00 |  |  |  | 
4 | CCC(=O)OC1C(c2ccc3c(N)ncnn23)OC(C#N)(COP(=O)(NC(C)C(=O)OCC2COC2)Oc2ccccc2)C1OC(=O)CC (single isomer, unassigned) [Example 205] | 7.68 | 4.72 | 6.79 | 6.54 |  |  |  | 
5 | CC(C)C(=O)OC1C(c2ccc3c(N)ncnn23)OC(C#N)(COP(=O)(NC(C)C(=O)OCC2CCC(N)CC2)Oc2ccccc2)C1OC(=O)C(C)C (single isomer, unassigned) [Example 208] | 6.67 | < 4.30 | 5.67 | 4.82 |  |  |  | 
6 | CC(C)C(=O)OC1C(c2ccc3c(N)ncnn23)OC(C#N)(COP(=O)(NC(C)C(=O)OCC2CCC(N)CC2)Oc2ccccc2)C1OC(=O)C(C)C (single isomer, unassigned) [Example 209] | 6.77 | 4.50 | 5.81 | 5.07 |  |  |  | 
7 | C[C@H](N[P@](=O)(OC[C@@]1(C#N)O[C@@H](c2ccc3c(N)ncnn23)C(OC(=O)c2ccccc2)[C@@H]1OC(=O)c1ccccc1)Oc1ccccc1)C(=O)OC1CCCCC1 (stereo in doubt) [Example 83, (2R,3S,4R,5S)-5-(4-aminopyrrolo[2,1-f][1,2,4]triazin-7-yl)-2-cyano-2-((((S)-(((S)-1-(cyclohexyloxy)-1-oxopropan-2-yl)amino)(phenoxy)phosphoryl)oxy)methyl) tetrahydrofuran-3,4-diyl dibenzoate] |  |  |  |  | < 5.30 | 5.29 | < 4.00 | 4.76
8 | CCC(=O)OC1[C@H](c2ccc3c(N)ncnn23)O[C@](C#N)(COP(=O)(N[C@@H](C)C(=O)OCC2CCOCC2)Oc2ccccc2)[C@H]1OC(=O)CC (stereo in doubt) [Example 107, (2R,3S,4R,5S)-5-(4-aminopyrrolo[2,1-f][1,2,4]triazin-7-yl)-2-cyano-2-((((((S)-1-oxo-1-((tetrahydro-2H-pyran-4-yl)methoxy)propan-2-yl)amino)(phenoxy)phosphoryl)oxy)methyl)tetrahydrofuran-3,4-diyl dipropionate] |  |  |  |  | 7.51 | 4.65 | 7.01 | 6.41
9 | CC(=O)OC1[C@H](c2ccc3c(N)ncnn23)O[C@](C#N)(COP(=O)(N[C@@H](C)C(=O)OCC2CCOCC2)Oc2ccccc2)[C@H]1OC(C)=O (stereo in doubt) [Example 110, (2R,3S,4R,5S)-5-(4-aminopyrrolo[2,1-f][1,2,4]triazin-7-yl)-2-cyano-2-((((((S)-1-oxo-1-((tetrahydro-2H-pyran-4-yl)methoxy)propan-2-yl)amino)(phenoxy)phosphoryl)oxy)methyl)tetrahydrofuran-3,4-diyl diacetate] |  |  |  |  | 7.40 | 4.25 | 6.49 | 5.60
10 | CC(=O)OC1[C@H](c2ccc3c(N)ncnn23)O[C@](C#N)(COP(=O)(N[C@@H](C)C(=O)OCC2CCN(CC(F)(F)F)CC2)Oc2ccccc2)[C@H]1OC(C)=O (stereo in doubt) [Example 118, (2R,3S,4R,5S)-5-(4-aminopyrrolo[2,1-f][1,2,4]triazin-7-yl)-2-cyano-2-((((((S)-1-oxo-1-((1-(2,2,2-trifluoroethyl)piperidin-4-yl)methoxy)propan-2-yl)amino)(phenoxy)phosphoryl)oxy)methyl)tetrahydrofuran-3,4-diyl diacetate] |  |  |  |  | 7.59 | 4.26 | 6.65 | 6.13
11 | CC(C)CCC(=O)O[C@H]1[C@H](c2ccc3c(N)ncnn23)O[C@](C#N)(CO[P@@](=O)(N[C@@H](C)C(=O)OC2CCCCC2)Oc2ccccc2)[C@H]1OC(=O)CCC(C)C [Example 78, (2R,3S,4S,5S)-5-(4-aminopyrrolo[2,1-f][1,2,4]triazin-7-yl)-2-cyano-2-((((S)-(((S)-1-(cyclohexyloxy)-1-oxopropan-2-yl)amino)(phenoxy)phosphoryl)oxy)methyl) tetrahydrofuran-3,4-diyl bis(4-methylpentanoate)] |  |  |  |  | 6.15 | 4.50 | 5.87 | 5.19
12 | CC(C)C(=O)O[C@H]1[C@H](c2ccc3c(N)ncnn23)O[C@](C#N)(CO[P@@](=O)(N[C@@H](C)C(=O)O[C@H]2CC[C@H](C(F)(F)F)CC2)Oc2ccccc2)[C@H]1OC(=O)C(C)C [Example 79, (2R,3S,4S,5S)-5-(4-Aminopyrrolo[2,1-f][1,2,4]triazin-7-yl)-2-cyano-2-((((S)-(((S)-1-oxo-1-((trans-4-(trifluoromethyl)cyclohexyl)oxy)propan-2-yl)amino) (phenoxy)phosphoryl)oxy)methyl)tetrahydrofuran-3,4-diyl bis(2-methylpropanoate)] |  |  |  |  | 7.72 | 4.91 | 6.98 | 6.66
13 | CC(C)C(=O)O[C@H]1[C@H](c2ccc3c(N)ncnn23)O[C@](C#N)(CO[P@@](=O)(N[C@@H](C)C(=O)O[C@H]2CC[C@H](C(C)(C)C)CC2)Oc2ccccc2)[C@H]1OC(=O)C(C)C [Example 80, (2R,3S,4S,5S)-5-(4-Aminopyrrolo[2,1-f][1,2,4]triazin-7-yl)-2-((((S)-(((S)-1-(((1r,4S)-4-(tert-butyl)cyclohexyl)oxy)-1-oxopropan-2-yl)amino)(phenoxy)phosphoryl)oxy)methyl)-2-cyanotetrahydrofuran-3,4-diyl bis(2-methylpropanoate)] |  |  |  |  | 6.80 | 5.28 | 5.93 | 5.80
14 | CC(C)OC(=O)[C@H](C)N[P@](=O)(OC[C@@]1(C#N)O[C@@H](c2ccc3c(N)ncnn23)[C@H](OC(=O)C(C)C)[C@@H]1OC(=O)C(C)C)Oc1ccccc1 [Example 84, (2R,3S,4S,5S)-5-(4-aminopyrrolo[2,1-f][1,2,4]triazin-7-yl)-2-cyano-2-((((S)-(((S)-1-isopropoxy-1-oxopropan-2-yl)amino)(phenoxy)phosphoryl)oxy)methyl) tetrahydrofuran-3,4-diyl bis(2-methylpropanoate)] |  |  |  |  | 7.80 | 4.89 | 7.24 | 6.92
15 | CC(C)C(=O)O[C@H]1[C@H](c2ccc3c(N)ncnn23)O[C@](C#N)(COP(=O)(N[C@@H](C)C(=O)OC[C@H]2CC[C@H](C(F)(F)F)CC2)Oc2ccccc2)[C@H]1OC(=O)C(C)C (some centres unmarked) [Example 87] |  |  |  |  | 7.64 | 4.91 | 6.92 | 6.66
16 | CC(=O)O[C@H]1[C@H](c2ccc3c(N)ncnn23)O[C@](C#N)(CO[P@@](=O)(N[C@@H](C)C(=O)OC(C)C)Oc2ccccc2)[C@H]1OC(C)=O [Example 89, (2R,3S,4S,5S)-5-(4-Aminopyrrolo[2,1-f][1,2,4]triazin-7-yl)-2-cyano-2-((((S)-(((S)-1-isopropoxy-1-oxopropan-2-yl)amino)(phenoxy)phosphoryl)oxy)methyl) tetrahydrofuran-3,4-diyl diacetate] |  |  |  |  | 6.90 | 4.30 | 6.71 | 6.11
17 | CCC(=O)OC1C(c2ccc3c(N)ncnn23)OC(C#N)(COP(=O)(NC(C)C(=O)OCC2CCC2)Oc2ccccc2)C1OC(=O)CC (centres unmarked) [Example 92] | 7.48 | 4.87 | 7.39 | 6.98 |  |  |  | 
18 | CCC(=O)OC1C(c2ccc3c(N)ncnn23)OC(C#N)(COP(=O)(NC(C)C(=O)OCC2CCC2)Oc2ccccc2)C1OC(=O)CC (centres unmarked) [Example 93] | 7.60 | 4.89 | 7.32 | 6.77 |  |  |  | 
19 | CC(=O)O[C@H]1[C@H](c2ccc3c(N)ncnn23)O[C@](C#N)(CO[P@@](=O)(N[C@@H](C)C(=O)OCC2CCC2)Oc2ccccc2)[C@H]1OC(C)=O [Example 95] | 7.70 | 4.70 | 7.05 | 6.37 |  |  |  | 
20 | CC(=O)O[C@H]1[C@H](c2ccc3c(N)ncnn23)O[C@](C#N)(CO[P@](=O)(N[C@@H](C)C(=O)OCC2CCC2)Oc2ccccc2)[C@H]1OC(C)=O [Example 96] | 7.70 | 4.77 | 7.20 | 6.38 |  |  |  | 
